Values of other authors, collected in patent publication US20160287532A1 (SignPath Pharma Inc., priority 2015, published 2016).
Read-outs that look alike come from different tables or passages of the source.

Tests used:
[1] = tested on: MMP-3
[2] = tested on: IL-1β
[3] = tested on: IL-6
[4] = tested on: IL-8; conditions: 20 μM curcumin
[5] = tested on: collagen type II; conditions: IVD cells of patients with acute spinal injury
[6] = tested on: NF-κB; conditions: chondrocytes
[7] = tested on: MMP-3; conditions: equine cartilage explants; dose dependent
[8] = biological target: T1, MMP-3 (Homo sapiens, UniProt P08254); conditions: IL-1β stimulated chondrocytes
T1 construct: endogenous in cells; host or cells: IL-1β stimulated chondrocytes
T1 sequence (P08254 100-477): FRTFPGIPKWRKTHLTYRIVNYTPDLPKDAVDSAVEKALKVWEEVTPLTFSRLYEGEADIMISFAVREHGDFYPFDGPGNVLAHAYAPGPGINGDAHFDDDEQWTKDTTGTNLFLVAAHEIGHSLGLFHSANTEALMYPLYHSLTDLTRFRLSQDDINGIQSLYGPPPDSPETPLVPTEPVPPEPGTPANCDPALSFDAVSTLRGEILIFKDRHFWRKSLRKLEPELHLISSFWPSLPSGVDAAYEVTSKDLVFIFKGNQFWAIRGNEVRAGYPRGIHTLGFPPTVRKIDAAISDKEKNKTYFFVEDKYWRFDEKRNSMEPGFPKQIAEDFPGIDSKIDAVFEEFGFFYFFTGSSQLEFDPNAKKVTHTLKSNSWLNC

[9] = if injected intravenously
[10] = tested on: MMP-2; conditions: MDA breast cancer cell line
[11] = tested on: TIMP-1; conditions: high concentrations of curcumin
[12] = tested on: TIMP-2; conditions: high concentrations of curcumin
[13] = tested on: TIMP-3; conditions: high concentrations of curcumin
[14] = tested on: TIMP-4; conditions: high concentrations of curcumin
[15] = tested on: MMP-2; conditions: A549 in vitro
[16] = tested on: MMP-9; conditions: A549 in vitro
[17] = tested on: MMP-3; conditions: curcumin added to cell culture
[18] = tested on: MMP-3; conditions: helicobacter pylori infected cells; dose dependent
[19] = biological target: T2, MMP-9 (Homo sapiens, UniProt P14780); conditions: helicobacter pylori infected cells; dose dependent
T2 construct: endogenous in cells; host or cells: human gastric epithelial cells infected with Helicobacter pylori
T2 sequence (P14780 94-707): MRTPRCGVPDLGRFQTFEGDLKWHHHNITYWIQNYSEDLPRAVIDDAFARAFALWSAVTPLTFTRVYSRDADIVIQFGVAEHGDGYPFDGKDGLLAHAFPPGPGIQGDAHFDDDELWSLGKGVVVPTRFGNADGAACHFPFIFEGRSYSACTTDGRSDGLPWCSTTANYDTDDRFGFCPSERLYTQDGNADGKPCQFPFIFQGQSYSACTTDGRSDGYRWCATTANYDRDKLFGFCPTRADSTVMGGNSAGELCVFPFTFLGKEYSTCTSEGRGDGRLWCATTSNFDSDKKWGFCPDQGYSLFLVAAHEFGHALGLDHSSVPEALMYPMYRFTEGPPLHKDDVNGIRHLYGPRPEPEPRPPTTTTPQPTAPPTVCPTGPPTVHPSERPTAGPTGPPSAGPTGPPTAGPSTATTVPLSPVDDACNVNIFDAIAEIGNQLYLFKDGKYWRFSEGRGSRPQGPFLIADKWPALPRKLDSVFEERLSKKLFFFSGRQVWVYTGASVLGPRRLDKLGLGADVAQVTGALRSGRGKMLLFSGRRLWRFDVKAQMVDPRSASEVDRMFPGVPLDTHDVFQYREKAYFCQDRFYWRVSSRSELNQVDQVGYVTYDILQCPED

[20] = tested on: MMP-1; conditions: human astroglioma cells
[21] = tested on: MMP-3; conditions: human astroglioma cells
[22] = tested on: MMP-3; conditions: oral, mice; dose dependent manner
[23] = tested on: IL-8; conditions: monocytes and macrophages
[24] = tested on: TNF-α; conditions: monocytes and macrophages
[25] = tested on: monocyte chemoattractant protein-1 (MCP-1); conditions: monocytes and macrophages
[26] = tested on: macrophage inflammatory protein-1α (MIP-1α); conditions: monocytes and macrophages
[27] = tested on: IL-8; conditions: monocytes, high glucose environment
[28] = tested on: TNF-α; conditions: monocytes, high glucose environment
[29] = tested on: MCP-1; conditions: monocytes, high glucose environment
[30] = tested on: TNF-α; conditions: acute pancreatitis mouse model
[31] = tested on: acute pancreatitis; conditions: acute pancreatitis mouse model
[32] = tested on: TNF-α; conditions: Wistar albino rats, experimental acute pancreatitis
[33] = tested on: IL-6; conditions: Wistar albino rats, experimental acute pancreatitis
[34] = tested on: IL-6; conditions: viral induced ARDS mouse model
[35] = tested on: IL-8; conditions: viral induced ARDS mouse model
[36] = tested on: interferon-γ; conditions: viral induced ARDS mouse model
[37] = tested on: viral induced acute respiratory distress syndrome; conditions: viral induced ARDS mouse model
[38] = tested on: IL-8; conditions: human esophageal epithelial cells
[39] = tested on: IL-8; conditions: human articular chondrocytes
[40] = tested on: IL-6; conditions: rats with non-bacterial prostatitis
[41] = tested on: IL-8; conditions: rats with non-bacterial prostatitis
[42] = tested on: interferon-γ; conditions: splenic T lymphocytes
[43] = tested on: IL-2; conditions: splenic T lymphocytes
[44] = tested on: TNF-α; conditions: peritoneal macrophages
[45] = tested on: IL-12; conditions: peritoneal macrophages
[46] = tested on: pro-inflammatory cytokines; conditions: pancreatic carcinoma cell lines
[47] = tested on: pro-inflammatory cytokines; conditions: multiple myeloma cell lines
[48] = tested on: COX2; conditions: chondrocytes

## COc1cc(/C=C/C(=O)/C=C(O)/C=C/c2ccc(O)c(OC)c2)ccc1O [curcumin, 1,7-bis(4-hydroxy-3-methoxyphenyl)-1,6-heptadiene-3,5-dione]
[1]; 10 μM curcumin
  MMP-3 expression reduced: 70%
[1]; 20 μM curcumin
  MMP-3 expression reduced: 75%
[2]; 10 μM curcumin
  Expression of IL-1β reduced: 70%
[2]; 20 μM curcumin
  Expression of IL-1β reduced: 75%
[3]; 10 μM curcumin
  expression of IL-6 decreased: 50%
[3]; 20 μM curcumin
  expression of IL-6 decreased: 70%
[4]
  IL-8 expression reduced: 50%
[5]
  IL-1 inhibition of collagen type II expression: reversed
[6]
  IL-1 induced NF-κB activation: decrease
[7]
  IL-1β stimulated MMP-3 release: reduced
[8]
  MMP-3 activity: inhibited
[9]
  cardiopathy: QT prolongation
[10]
  MMP-2: inhibited
[11]
  TIMP-1: up-regulated
[12]
  TIMP-2: up-regulated
[13]
  TIMP-3: up-regulated
[14]
  TIMP-4: up-regulated
[15]
  MMP-2: Inhibition
[16]
  MMP-9: Inhibition
[17]
  MMP-3: dose dependent suppression
[18]
  MMP-3 activity: suppressed
[19]
  MMP-9 activity: suppressed
[20]
  MMP-1: Suppression
[21]
  MMP-3: Suppression
[22]
  MMP-3 expression in joints: suppress
[23]
  IL-8 release: suppresses
[24]
  TNF-α release: suppresses
[25]
  MCP-1 release: suppresses
[26]
  MIP-1α release: suppresses
[27]
  release of IL-8: markedly reduced
[28]
  release of TNF-α: markedly reduced
[29]
  release of MCP-1: markedly reduced
[30]
  TNF-α levels: suppression
[31]
  pancreatic injury: decreased
[32]
  TNF-α levels: reduced
[33]
  IL-6 levels: reduced
[34]
  expression of IL-6: reduced
[35]
  expression of IL-8: reduced
[36]
  expression of interferon-γ: reduced
[37]
  fibrosis: reduction
  inflammation: marked decrease
[38]
  release of IL-8: block
[39]
  release of IL-8: block
[40]
  IL-6 expression: reduced
[41]
  IL-8 expression: reduced
[42]
  production of interferon-γ: inhibited
[43]
  expression of IL-2: inhibited
[44]
  production of TNF-α: inhibited
[45]
  expression of IL-12: inhibited
[46]
  pro-inflammatory cytokines: suppressed
[47]
  pro-inflammatory cytokines: suppressed
[48]
  COX2 regulation: down regulation
